Marks after values point to notes of the source that are not given here.
What was measured:
[1] = test system: Scn1a+/− mouse model of DS; parameters: method as in Anderson et al., 2021a; Anderson et al., 2021b; conditions: Scn1a+/− mice, ref Anderson et al., 2021a, 2021b; cited from earlier work
[2] = test system: electrically induced seizure model; parameters: method as in Davis and Hatoum, 1983; conditions: ref Davis and Hatoum, 1983; cited from earlier work
[3] = target: T1, human NaV1.2 channel (SCN2A, HEK293T cells) (Homo sapiens, UniProt Q99250); test: Planar patch-clamp, inhibition of peak sodium current (IC50 protocol); type: cell-based; conditions: for Effect on peak sodium current (in words): NaV1.2, 0.1–100 μM, no maximal inhibition at 100 µM
T1 construct: expressed in transfected cells
Experimental: (§1) HEK293T cells stably expressing SCN1A or SCN2A and CHO cells stably expressing SCN8A or SCN9A were maintained as previously described ([Richards et al., 2018]; [Milligan et al., 2022]).
(§2) Patch-clamp recordings were made using a Patchliner® (Nanion Technologies, Munich, Germany) in the whole-cell configuration as previously described ([Richards et al., 2018]; [Milligan et al., 2022]). Briefly, cells were prepared in suspension at a density of 1 × 10^6-5 × 10^7 cells/mL. The external recording solution comprised (in mM): 140 NaCl, 4 KCl, 1 MgCl2, 2 CaCl2, 5 D-glucose, 10 HEPES, pH 7.4 with NaOH, ∼295 mOsm. The internal recording solution comprised (in mM): 50 CsCl, 60 CsF, 10 NaCl, 20 EGTA, 10 HEPES, pH 7.2 with CsOH, ∼285 mOsm. Medium single-hole planar NPC-16 chips with an average resistance of ∼2.5 MΩ were used. Chip and whole-cell capacitance were fully compensated, and 50% series resistance compensation applied. Recordings were acquired at 50 kHz with the low pass filter set to 10 kHz in PATCHMASTER (HEKA Instruments, NY, United States) and performed at 27°C. Offline analysis was performed using Microsoft Excel, MatLab R2019a (MathWorks) and GraphPad Prism 8 (Molecular Devices).
(§3) To determine half-maximal inhibitory concentrations (IC50), cells were held at −80 mV, stepped to −120 mV for 200 ms followed by 50 ms test depolarization to 0 mV every 2 s for 30 s in the presence of vehicle control (DMSO). The cells were then exposed to an individual phytocannabinoid (CBD, CBGA, CBDVA, CBG, CBCA or CBC) at concentrations between 0.1 and 100 μM, sequentially for 5 min. Currents for individual cells were averaged over 24 s periods directly before application and following a 5 min exposure of compound. Leak subtraction was applied before normalization of current amplitude. Normalized mean data were fit to the Hill equation.

[4] = target: T2, human NaV1.7 channel (SCN9A, CHO cells) (Homo sapiens, UniProt Q15858); test: as above; type: cell-based; conditions: for Effect on peak sodium current (in words): NaV1.7, 0.1–100 μM, no maximal inhibition at 100 µM
T2 construct: expressed in transfected cells
Experimental: as §1, §2, §3

[5] = target: T3, human NaV1.1 channel (SCN1A, HEK293T cells) (Homo sapiens, UniProt P35498); test: as above; type: cell-based; conditions: NaV1.1; 0.1–100 μM, no maximal inhibition at 100 µM
T3 construct: expressed in transfected cells
Experimental: as §1, §2, §3

[6] = target: T4, human NaV1.6 channel (SCN8A, CHO cells) (Homo sapiens, UniProt Q9UQD0); test: as above; type: cell-based; conditions: for Effect on peak sodium current (in words): NaV1.6, 0.1–100 μM, no maximal inhibition at 100 µM
T4 construct: expressed in transfected cells
Experimental: as §1, §2, §3

[7] = parameters: method as in Anderson et al., 2019b; conditions: CBDVA; ref Anderson et al., 2019b; cited from earlier work
[8] = target: T1, human NaV1.2 channel (SCN2A, HEK293T cells); test: Planar patch-clamp, biophysical properties (activation, SSFI, recovery from SSFI); type: cell-based; conditions: change vs vehicle DMSO at IC50 concentration (CBD 18.4 μM, CBGA 14.7 μM, CBDVA 60 μM)
Experimental: as §1, §2
(§4) Voltage protocols were used, as previously described ([Richards et al., 2018]). Briefly, to study the voltage-dependence of activation, cells were held at −120 mV and depolarized to test potentials, in 5 mV increments, between −120 mV and +50 mV for 100 ms. To study steady-state fast inactivation, cells were held at conditioning pre-pulse potentials ranging from −120 mV to +30 mV in 5 mV increments from a holding potential of −120 mV and a test pulse at 5 mV for 20 ms. Recovery from fast inactivation was studied by pre-pulsing the cells to 0 mV from a holding potential of −120 mV for 50 ms, to fully inactivate channels. The voltage was then stepped back to the holding potential for variable interpulse intervals (ipi from 0 to 39 ms in 3 ms increments). To test channel availability, the voltage was stepped to 0 mV for 50 ms.
(§5) To examine the voltage-dependence of activation, normalized current-voltage (I-V) relationships were converted to conductance (G) using the following equation: G = I/(V−V r ) where Vr is the reversal potential for Na^+. The voltage-dependence of conductance and availability were normalized and fitted to a Boltzmann equation: G = 1/(1 + exp [(V−V 0.5)/a]), where a is the slope of the half-maximum, V is the potential of the given pulse, and V 0.5 is the potential for the half-maximal activation/inactivation. The time course of inactivation was fitted to a single exponential function I/Imax = I0+A*exp (-t-t0/τ)+C, where I0 is the non-inactivating component, Imax is the peak current, t is time, and A is the component for the time constant τ. Time constants were plotted against voltage and the data fitted with a decaying exponential equation Y = span*exp (−K*x)+plateau, where span is the starting point of the curve, K is the decay factor, plateau is the value the curve decays to, and x is time. To measure recovery from inactivation, normalized currents were plotted against ipi and data fitted with equation I/I max = 1-exp/(rc + x), where I max is maximal current; rc recovery rate constant; x is time. Peak current (I) was plotted as fractional recovery against the recovery period by normalizing to the maximum current (Imax) during the conditioning potentials.

[9] = target: T2, human NaV1.7 channel (SCN9A, CHO cells); test: as above; type: cell-based; conditions: change vs vehicle DMSO at IC50 concentration (CBD 11.9 μM, CBGA 16.4 μM, CBDVA 60 μM)
Experimental: as §1, §2, §4, §5

[10] = target: T3, human NaV1.1 channel (SCN1A, HEK293T cells); test: as above; type: cell-based; conditions: change vs vehicle DMSO at IC50 concentration (CBD 18.5 μM, CBGA 13.6 μM, CBDVA 50 μM)
Experimental: as §1, §2, §4, §5

[11] = target: T4, human NaV1.6 channel (SCN8A, CHO cells); test: as above; type: cell-based; conditions: change vs vehicle DMSO at IC50 concentration (CBD 16.6 μM, CBGA 12.0 μM, CBDVA 24.1 μM)
Experimental: as §1, §2, §4, §5

[12] = test system: sodium channels; parameters: method as in Hill et al., 2014; Ghovanloo et al., 2022; conditions: different voltage protocols or model systems; ref Hill et al., 2014; Ghovanloo et al., 2022; read-out: IC50 (low affinity inhibitor of sodium channels); cited from earlier work
[13] = test system: PTZ-induced acute seizure model; parameters: method as in Hill et al., 2014; conditions: ref Hill et al., 2014; cited from earlier work

T2 sequence (Q15858 whole entry): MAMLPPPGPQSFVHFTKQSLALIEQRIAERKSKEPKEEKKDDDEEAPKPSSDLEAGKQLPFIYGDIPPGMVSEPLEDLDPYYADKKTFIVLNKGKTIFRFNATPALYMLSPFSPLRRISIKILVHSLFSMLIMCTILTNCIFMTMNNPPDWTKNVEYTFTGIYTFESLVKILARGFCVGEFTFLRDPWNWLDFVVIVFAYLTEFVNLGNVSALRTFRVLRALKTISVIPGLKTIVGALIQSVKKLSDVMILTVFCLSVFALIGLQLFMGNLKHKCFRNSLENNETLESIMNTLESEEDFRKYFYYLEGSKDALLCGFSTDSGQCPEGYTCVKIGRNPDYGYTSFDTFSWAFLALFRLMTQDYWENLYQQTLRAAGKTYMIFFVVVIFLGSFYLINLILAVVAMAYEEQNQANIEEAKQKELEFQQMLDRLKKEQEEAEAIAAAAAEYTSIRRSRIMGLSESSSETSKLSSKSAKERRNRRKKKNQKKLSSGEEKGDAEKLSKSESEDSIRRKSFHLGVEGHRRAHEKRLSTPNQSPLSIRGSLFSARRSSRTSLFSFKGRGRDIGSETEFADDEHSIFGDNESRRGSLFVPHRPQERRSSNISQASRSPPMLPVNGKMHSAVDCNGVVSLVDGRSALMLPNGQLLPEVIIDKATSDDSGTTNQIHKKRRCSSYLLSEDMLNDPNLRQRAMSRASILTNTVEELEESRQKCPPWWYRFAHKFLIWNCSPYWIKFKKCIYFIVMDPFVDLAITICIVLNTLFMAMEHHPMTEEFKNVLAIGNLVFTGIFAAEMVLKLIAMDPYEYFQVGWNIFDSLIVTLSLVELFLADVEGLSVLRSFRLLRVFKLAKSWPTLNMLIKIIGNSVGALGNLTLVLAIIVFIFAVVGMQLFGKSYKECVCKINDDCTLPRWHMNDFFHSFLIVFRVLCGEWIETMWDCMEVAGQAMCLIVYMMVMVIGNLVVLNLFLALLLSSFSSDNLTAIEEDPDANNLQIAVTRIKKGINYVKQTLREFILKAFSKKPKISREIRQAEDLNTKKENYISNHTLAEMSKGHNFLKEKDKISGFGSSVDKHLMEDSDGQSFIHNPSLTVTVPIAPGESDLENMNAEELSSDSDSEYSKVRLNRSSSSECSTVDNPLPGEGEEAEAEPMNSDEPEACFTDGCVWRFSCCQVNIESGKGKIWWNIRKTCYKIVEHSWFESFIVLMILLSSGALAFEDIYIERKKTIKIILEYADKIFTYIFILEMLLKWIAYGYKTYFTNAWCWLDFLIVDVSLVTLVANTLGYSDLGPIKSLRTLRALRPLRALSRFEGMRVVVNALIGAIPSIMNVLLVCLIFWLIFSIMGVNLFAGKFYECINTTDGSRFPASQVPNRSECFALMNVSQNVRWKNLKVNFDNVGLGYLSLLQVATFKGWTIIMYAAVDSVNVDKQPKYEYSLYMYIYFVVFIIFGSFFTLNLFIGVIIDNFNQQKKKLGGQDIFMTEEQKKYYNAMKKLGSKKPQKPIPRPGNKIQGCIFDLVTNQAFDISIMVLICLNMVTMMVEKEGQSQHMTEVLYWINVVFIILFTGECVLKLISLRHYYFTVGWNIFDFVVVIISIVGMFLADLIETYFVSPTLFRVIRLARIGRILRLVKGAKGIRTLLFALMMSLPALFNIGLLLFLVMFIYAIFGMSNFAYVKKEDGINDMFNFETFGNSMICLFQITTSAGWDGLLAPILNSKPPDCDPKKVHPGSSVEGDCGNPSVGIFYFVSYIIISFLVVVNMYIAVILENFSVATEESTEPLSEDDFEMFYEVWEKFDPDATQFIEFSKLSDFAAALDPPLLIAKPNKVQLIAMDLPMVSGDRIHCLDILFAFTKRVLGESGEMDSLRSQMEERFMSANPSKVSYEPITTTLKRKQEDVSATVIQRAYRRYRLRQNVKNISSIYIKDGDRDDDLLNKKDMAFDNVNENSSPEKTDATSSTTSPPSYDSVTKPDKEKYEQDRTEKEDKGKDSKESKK
T4 sequence (Q9UQD0 whole entry): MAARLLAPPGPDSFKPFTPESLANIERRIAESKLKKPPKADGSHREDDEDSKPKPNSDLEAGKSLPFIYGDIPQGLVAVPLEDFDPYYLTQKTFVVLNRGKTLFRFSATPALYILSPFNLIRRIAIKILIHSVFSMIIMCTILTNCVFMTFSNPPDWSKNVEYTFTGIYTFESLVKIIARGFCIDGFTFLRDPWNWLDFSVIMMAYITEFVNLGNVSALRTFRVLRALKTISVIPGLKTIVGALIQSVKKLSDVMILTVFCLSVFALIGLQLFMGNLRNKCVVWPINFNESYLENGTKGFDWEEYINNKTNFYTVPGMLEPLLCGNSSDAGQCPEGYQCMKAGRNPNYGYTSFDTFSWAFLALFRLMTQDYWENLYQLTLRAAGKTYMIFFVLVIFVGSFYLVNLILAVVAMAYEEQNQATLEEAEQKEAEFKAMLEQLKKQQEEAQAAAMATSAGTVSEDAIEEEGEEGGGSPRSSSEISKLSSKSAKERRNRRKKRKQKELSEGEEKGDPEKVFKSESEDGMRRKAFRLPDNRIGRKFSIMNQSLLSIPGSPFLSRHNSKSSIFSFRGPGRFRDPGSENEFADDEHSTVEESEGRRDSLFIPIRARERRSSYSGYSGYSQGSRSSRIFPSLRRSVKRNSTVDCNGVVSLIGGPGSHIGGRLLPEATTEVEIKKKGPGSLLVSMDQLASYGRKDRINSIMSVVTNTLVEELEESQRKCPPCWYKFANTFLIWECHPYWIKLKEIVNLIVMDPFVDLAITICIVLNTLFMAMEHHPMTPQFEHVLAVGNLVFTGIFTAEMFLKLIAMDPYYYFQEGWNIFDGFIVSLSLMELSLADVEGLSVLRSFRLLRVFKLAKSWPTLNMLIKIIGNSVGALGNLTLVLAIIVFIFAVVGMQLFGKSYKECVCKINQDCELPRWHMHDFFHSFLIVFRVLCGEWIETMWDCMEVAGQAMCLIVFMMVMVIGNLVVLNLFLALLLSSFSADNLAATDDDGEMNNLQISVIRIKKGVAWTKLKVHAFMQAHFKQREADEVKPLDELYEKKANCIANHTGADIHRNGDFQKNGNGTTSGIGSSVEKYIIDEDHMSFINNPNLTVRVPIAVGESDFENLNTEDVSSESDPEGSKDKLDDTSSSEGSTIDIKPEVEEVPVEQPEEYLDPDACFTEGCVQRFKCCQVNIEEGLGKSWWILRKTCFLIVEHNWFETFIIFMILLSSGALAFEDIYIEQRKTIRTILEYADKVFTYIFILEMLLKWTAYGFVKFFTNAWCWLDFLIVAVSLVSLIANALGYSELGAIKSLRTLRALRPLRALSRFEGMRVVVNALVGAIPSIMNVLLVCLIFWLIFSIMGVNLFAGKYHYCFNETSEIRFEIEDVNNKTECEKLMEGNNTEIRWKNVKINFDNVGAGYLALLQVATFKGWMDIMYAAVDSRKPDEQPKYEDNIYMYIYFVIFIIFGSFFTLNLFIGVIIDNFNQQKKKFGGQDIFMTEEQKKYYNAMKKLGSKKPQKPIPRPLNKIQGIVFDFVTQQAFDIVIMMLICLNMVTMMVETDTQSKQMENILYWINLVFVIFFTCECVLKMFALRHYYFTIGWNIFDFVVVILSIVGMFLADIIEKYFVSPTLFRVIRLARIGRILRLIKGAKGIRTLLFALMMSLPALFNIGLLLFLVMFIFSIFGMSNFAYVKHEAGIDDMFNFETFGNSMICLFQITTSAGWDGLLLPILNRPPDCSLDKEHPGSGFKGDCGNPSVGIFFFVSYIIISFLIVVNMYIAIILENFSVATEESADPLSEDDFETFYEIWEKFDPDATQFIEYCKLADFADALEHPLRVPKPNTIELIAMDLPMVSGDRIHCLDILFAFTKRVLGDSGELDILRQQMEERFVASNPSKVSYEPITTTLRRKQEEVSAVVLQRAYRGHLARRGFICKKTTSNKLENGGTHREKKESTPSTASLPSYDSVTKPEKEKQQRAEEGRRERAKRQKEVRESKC

CCCCCc1cc(O)c2c(c1)OC(C)(CCC=C(C)C)C=C2 (centres unmarked) [CBC, cannabichromene]
Effect against hyperthermia-induced seizures [1]: anti-convulsant properties
Effect in electrically induced seizure model [2]: ineffective
Effect on peak sodium current (in words) [3]: modestly inhibited
Effect on peak sodium current (in words) [4]: modestly inhibited
Effect on peak sodium current (in words) [5]: modestly inhibited
Effect on peak sodium current (in words) [6]: modestly inhibited

CCCCCc1cc2c(c(O)c1C(=O)O)C=CC(C)(CCC=C(C)C)O2 (centres unmarked) [CBCA, cannabichromenic acid]
Effect against hyperthermia-induced seizures [1]: anti-convulsant properties
Effect on peak sodium current (in words) [3]: modestly inhibited
Effect on peak sodium current (in words) [4]: modestly inhibited
Effect on peak sodium current (in words) [5]: modestly inhibited
Effect on peak sodium current (in words) [6]: modestly inhibited

C=C(C)[C@@H]1CCC(C)=C[C@H]1c1c(O)cc(CCC)c(C(=O)O)c1O [CBDVA, cannabidivarinic acid]
Estimated brain concentration attained at anti-convulsant doses [7]: 5.5 µM
Effect against hyperthermia-induced seizures [1]: anti-convulsant properties
Inactivation △ V0.5 inact ([8]; SSFI): −2.3 ± 1.5 mV
Inactivation △ slope factor ([8]; SSFI): 1.0 ± 0.2***
Activation △ Slope factor [8]: 0.9 ± 0.2****
Activation △ V0.5 act [8]: 11.5 ± 1.5**** mV
Inactivation △ τinact SSFI at 5 mV [8]: 0.4 ± 0.06****
Inactivation △ V0.5 inact ([9]; SSFI): −4.1 ± 0.9*** mV
Inactivation △ slope factor ([9]; SSFI): 1.6 ± 0.3****
Activation △ Slope factor [9]: 0.9 ± 0.2***
Activation △ V0.5 act [9]: 8.7 ± 1.8*** mV
Inactivation △ τinact SSFI at 5 mV [9]: 0.3 ± 0.07**
Inactivation △ V0.5 inact ([10]; SSFI): −10.1 ± 2.3** mV
Inactivation △ slope factor ([10]; SSFI): 1.8 ± 0.3***
Activation △ Slope factor [10]: 1.7 ± 0.4***
Activation △ V0.5 act [10]: 13.0 ± 1.6**** mV
Inactivation △ τinact SSFI at 5 mV [10]: 0.4 ± 0.05****
Inactivation △ V0.5 inact ([11]; SSFI): −3.0 ± 1.3* mV
Inactivation △ slope factor ([11]; SSFI): 0.5 ± 0.3
Activation △ Slope factor [11]: 1.9 ± 0.7*
Activation △ V0.5 act [11]: 10.4 ± 2.9** mV
Inactivation △ τinact SSFI at 5 mV [11]: 0.3 ± 0.09**
Effect on peak sodium current (in words) [3]: only partially inhibited
IC50 ([3]; NaV1.2 peak current, 0.1–100 µM, 5 min exposure, mean ± SEM): ≥ 60 µM
Effect on peak sodium current (in words) [4]: only partially inhibited
IC50 ([4]; NaV1.7 peak current, 0.1–100 µM, 5 min exposure, mean ± SEM): ≥ 60 µM
Effect on peak sodium current (in words) [5]: only partially inhibited
Slope (Hill slope coefficient) ([6]; NaV1.6 concentration-response, mean ± SEM): 2.1 ± 0.5
IC50 ([6]; NaV1.6 peak current, 0.1–100 µM, 5 min exposure, mean ± SEM): 24.1 ± 1.2 µM

CCCCCc1cc(O)c(C/C=C(\C)CCC=C(C)C)c(O)c1 [CBG, cannabigerol]
Effect against hyperthermia-induced seizures [1]: ineffective
IC50 [12]: 2 to 22 µM
Effect on peak sodium current (in words) [3]: modestly inhibited
Effect on peak sodium current (in words) [4]: modestly inhibited
Effect on peak sodium current (in words) [5]: modestly inhibited
Effect on peak sodium current (in words) [6]: modestly inhibited
Anti-convulsant effect in PTZ-induced acute seizure model [13]: ineffective

Source: PMC9986306, “Beyond CBD: Inhibitory effects of lesser studied phytocannabinoids on human voltage-gated sodium channels” (Frontiers in Physiology, 2023)
